{"source": "patent US20090264425A1", "about": "“CHEMICAL COMPOUNDS” (PFIZER LIMITED, priority 2004, published 2009)", "data": [{"target": "T1, HIV-1 reverse transcriptase (Human immunodeficiency virus type 1 group M subtype B, UniProt P04585)", "T1 construct": "purified recombinant HIV-1 reverse transcriptase (RT, EC, 2.7.7.49); made in house; host or cells: Escherichia coli", "assay": "Inhibition of HIV-1 reverse transcriptase enzyme ([3H]-Flashplate enzyme assay, 384-well)", "type": "biochemical", "conditions": "purified recombinant HIV-1 RT expressed in Escherichia Coli; 5% final DMSO", "from_the_text": "The activity of the compounds of the invention as reverse transcriptase inhibitors may be measured using the following assay.\nInhibition of HIV-1 Reverse Transcriptase Enzyme\nThe reverse transcriptase activity of the compounds of the invention may be assayed as follows. Using the purified recombinant HIV-1 reverse transcriptase (RT, EC, 2.7.7.49) obtained by expression in Escherichia Coli, a 384-well plate assay system was established for assaying a large number of samples using the [3H]-Flashplate enzyme assay system (NEN-SMP 410A) following the manufacturer's recommendations. The compounds were dissolved in 100% DMSO and diluted with the appropriate buffer to a 5% final DMSO concentration. The inhibitory activity was expressed in percent inhibition relative to the DMSO control.", "units": {"IC50": "nM"}, "values": [{"smiles": "N#Cc1cc(Cl)cc(Oc2cc(Cl)ccc2OCC(=O)N2CCCc3cc(S(N)(=O)=O)ccc32)c1", "note": "[Example 1, 1-{[4-Chloro-2-(3-chloro-5-cyanophenoxy)phenoxy]acetyl}-1,2,3,4-tetrahydroquinoline-6-sulfonamide]", "IC50": 26.1}, {"smiles": "N#Cc1cc(Cl)cc(Oc2cc(Cl)ccc2OCC(=O)Nc2ccc(S(N)(=O)=O)cc2Cl)c1", "note": "[Example 9, N-[4-(Aminosulfonyl)-2-chlorophenyl]-2-[4-chloro-2-(3-chloro-5-cyanophenoxy)phenoxy]acetamide]", "IC50": 6}, {"smiles": "N#Cc1cc(Cl)cc(Oc2cc(Cl)ccc2OCC(=O)N2CCc3ccc(S(=O)(=O)N4CCOCC4)cc3C2)c1", "note": "[Example 16]", "IC50": 541}, {"smiles": "Cc1cc(CN(C)C(=O)COc2cc(Cl)ccc2Oc2cc(Cl)cc(C#N)c2)on1", "note": "[Example 25]", "IC50": 2180}, {"smiles": "Cc1nc(S(N)(=O)=O)ccc1NC(=O)COc1ccc(Cl)cc1Sc1cc(Cl)cc(C#N)c1", "note": "[Example 46, N-[6-(Aminosulfonyl)-2-methylpyridin-3-yl]-2-{4-chloro-2-[(3-chloro-5-cyanophenyl)thio]phenoxy}acetamide]", "IC50": 27.7}, {"smiles": "Cc1cnccc1NC(=O)COc1cc(Cl)ccc1Oc1cc(Cl)cc(C#N)c1", "note": "[Example 50]", "IC50": 5.68}]}]}
